{
  "source": "patent US8822486B2",
  "about": "“Spiropiperidine compounds” (Eli Lilly and Company, priority 2009, dated 2014)",
  "target": "T1, PPARγ (Homo sapiens, UniProt P37231)",
  "T1 sequence (P37231 1-505)": "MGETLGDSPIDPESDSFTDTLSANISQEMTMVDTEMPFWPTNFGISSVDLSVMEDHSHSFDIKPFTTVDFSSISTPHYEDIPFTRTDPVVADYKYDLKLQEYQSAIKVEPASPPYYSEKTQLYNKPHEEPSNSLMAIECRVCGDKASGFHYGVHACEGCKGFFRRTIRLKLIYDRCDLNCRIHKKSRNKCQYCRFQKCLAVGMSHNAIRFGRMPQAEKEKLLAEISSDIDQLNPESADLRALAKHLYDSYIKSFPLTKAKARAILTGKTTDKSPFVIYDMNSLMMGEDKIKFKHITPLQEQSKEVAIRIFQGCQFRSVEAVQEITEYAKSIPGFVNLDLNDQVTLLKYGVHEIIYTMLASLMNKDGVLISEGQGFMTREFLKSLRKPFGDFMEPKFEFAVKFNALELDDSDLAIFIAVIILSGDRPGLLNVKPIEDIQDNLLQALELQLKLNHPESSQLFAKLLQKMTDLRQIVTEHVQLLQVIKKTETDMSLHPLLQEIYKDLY",
  "T1 sequence (P19793 1-462 partner)": "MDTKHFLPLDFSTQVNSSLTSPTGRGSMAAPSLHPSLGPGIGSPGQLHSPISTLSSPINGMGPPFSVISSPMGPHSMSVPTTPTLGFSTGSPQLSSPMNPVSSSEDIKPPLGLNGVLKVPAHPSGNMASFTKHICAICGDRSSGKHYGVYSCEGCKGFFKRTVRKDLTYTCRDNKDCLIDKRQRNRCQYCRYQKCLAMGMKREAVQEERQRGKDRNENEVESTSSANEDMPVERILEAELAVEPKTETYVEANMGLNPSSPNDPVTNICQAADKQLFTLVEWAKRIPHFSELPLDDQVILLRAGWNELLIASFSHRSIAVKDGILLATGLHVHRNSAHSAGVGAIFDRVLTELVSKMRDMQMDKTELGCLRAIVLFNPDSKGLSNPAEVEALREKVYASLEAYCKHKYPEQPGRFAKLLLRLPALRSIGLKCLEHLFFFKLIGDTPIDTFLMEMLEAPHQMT",
  "experiment": "PPARγ binding assay (SPA)",
  "design": "made in house; host or cells: HEK293 (cell lysates)",
  "conditions": "concentrations up to 10 μM",
  "description": "Because GPR40 is known to be activated by ligands to PPARγ exemplified compounds are examined in PPARα, PPARδ, and PPARγ binding and functional assays to determine the selectivity of exemplified compounds for GPR40. Compounds exemplified herein are tested essentially as described below for PPAR binding and generally have binding values greater than 1000 nM with 10 μM concentrations of test compound and are thus considered negative for PPAR activity.\nBinding affinities of compounds for the PPAR α, δ, and γ receptors are assessed using Scintillation Proximity Assay (SPA) technology. Biotinylated oligonucleotide Direct Repeat 2 (DR2) is used for binding the receptors to Yttrium silicate streptavidin-coated SPA beads. […] Non-specific binding is determined in the presence of 10,000 nM of the unlabeled PPAR α/δ dual agonist reference compound for the alpha and delta receptor assays and the PPARγ agonist reference compound for the gamma receptor assay. The binding reaction (100 μl per well in a 96 well [Costar 3632] plate) is incubated for 10 h and counted disintegration per minutes (dpm) on a Wallac Microbeta. Receptor binding affinity (IC50) for the compounds is determined by fitting an 11 point concentration-response curve with a 4-paramater logistic equation. K, is determined from the IC50 using the Cheng-Prussoff equation and Kd determined by saturation binding. […]",
  "data": [
    {"smiles": "CC#C[C@@H](CC(=O)O)c1ccc(OCc2ccc(CN3CCC4(C=Cc5ccccc54)CC3)s2)cc1", "note": "[Example 1, (3S)-3-[4-[[5-(Spiro[indene-1,4′-piperidine]-1′-ylmethyl)-2-thienyl]methoxy]phenyl]hex-4-ynoic acid]", "values": [
      {"measurement": "PPARγ binding", "value": "no binding is detected"}
    ]}
  ]
}
